The values below come from publication PMC5908784, “Extracellular loops 2 and 3 of the calcitonin receptor selectively modify agonist binding and efficacy” (Biochemical Pharmacology, 2018).

Molecules are shown by their SMILES. Numbering of substitutions follows the chain as printed. Where two headings read alike, the source gives them in different places. Where a SMILES comes first, the peptide text is derived from it. Bridges are numbered along the chain shown (N, C = ends).

Holding throughout (experiment): IP1 accumulation
What all share (assay type): cell-based

The target of one experiment is T1, hCTR G369A (Homo sapiens, UniProt P30988, G369A).
T1 construct: c-Myc (N); expressed in transfected cells
T1 sequence (P30988 25-474 G369A): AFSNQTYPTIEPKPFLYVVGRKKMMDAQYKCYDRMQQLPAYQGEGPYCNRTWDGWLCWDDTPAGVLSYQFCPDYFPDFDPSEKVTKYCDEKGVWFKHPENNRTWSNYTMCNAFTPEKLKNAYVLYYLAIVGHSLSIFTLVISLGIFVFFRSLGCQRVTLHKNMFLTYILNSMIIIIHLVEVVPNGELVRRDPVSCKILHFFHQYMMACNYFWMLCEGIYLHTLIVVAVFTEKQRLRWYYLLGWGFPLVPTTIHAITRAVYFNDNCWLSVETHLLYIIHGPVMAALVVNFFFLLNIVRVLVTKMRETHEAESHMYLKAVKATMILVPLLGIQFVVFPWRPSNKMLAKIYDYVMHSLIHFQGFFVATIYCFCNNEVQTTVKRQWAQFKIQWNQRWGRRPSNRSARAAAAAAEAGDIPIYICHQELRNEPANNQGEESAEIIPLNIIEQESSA
Particulars: mean ± S.E.M.; for Emax: IP1 maximal response, SEM. In short, it runs like this: (§1)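 Concentration-response curves were fitted to a 3-parameter logistic model to estimate EC50 and Emax. Cells had been exposed to ligand for 60 min with LiCl, and lysate IP1 determined by HTRF, with normalization to 100 μM ATP.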

In another experiment the target is T2, hCTR N286A (Homo sapiens, UniProt P30988, N286A).
T2 construct: c-Myc (N); expressed in transfected cells
T2 sequence (P30988 25-474 N286A): T1 sequence (P30988 25-474 G369A) with N262A, A345G
Particulars: mean ± S.E.M.; for Emax: IP1 maximal response, SEM. In outline: as §1

The target in the next experiment is T3, hCTR L368A (Homo sapiens, UniProt P30988, L368A).
T3 construct: c-Myc (N); expressed in transfected cells
T3 sequence (P30988 25-474 L368A): T1 sequence (P30988 25-474 G369A) with L344A, A345G
As to conditions: mean ± S.E.M.; for Emax: IP1 maximal response, SEM. In short, it runs like this:
as §1

The next experiment deals with T4, hCTR L298A (Homo sapiens, UniProt P30988, L298A).
T4 construct: c-Myc (N); expressed in transfected cells
T4 sequence (P30988 25-474 L298A): T1 sequence (P30988 25-474 G369A) with L274A, A345G
Particulars: for Emax: read-out: Emax (% WT), SEM. In short, it runs like this:
as §1

In a further experiment the target is T5, hCTR E294A (Homo sapiens, UniProt P30988, E294A).
T5 construct: c-Myc (N); expressed in transfected cells
T5 sequence (P30988 25-474 E294A): T1 sequence (P30988 25-474 G369A) with E270A, A345G
Particulars: mean ± S.E.M.; for Emax: IP1 maximal response, SEM. In short, it runs like this: as §1

The mark [1] stands for this setting: IP1, CV1-FlpIn cells, 60 min, LiCl.

Consider `CC[C@H](C)[C@H](NC(=O)[C@H](C)NC(=O)[C@@H](NC(=O)[C@H](CCC(N)=O)NC(=O)[C@@H]1CCCN1C(=O)[C@H](Cc1ccccc1)NC(=O)[C@@H](NC(=O)[C@H](Cc1c[nH]cn1)NC(=O)[C@H](Cc1ccccc1)NC(=O)[C@H](CCCCN)NC(=O)[C@H](CC(N)=O)NC(=O)[C@H](Cc1ccccc1)NC(=O)[C@H](CC(=O)O)NC(=O)[C@H](CCC(N)=O)NC(=O)[C@@H](NC(=O)[C@H](Cc1ccc(O)cc1)NC(=O)[C@@H](NC(=O)CNC(=O)[C@H](CC(C)C)NC(=O)[C@H](CCSC)NC(=O)[C@@H]1CSSC[C@H](N)C(=O)NCC(=O)N[C@@H](CC(N)=O)C(=O)N[C@@H](CC(C)C)C(=O)N[C@@H](CO)C(=O)N[C@@H]([C@@H](C)O)C(=O)N1)[C@@H](C)O)[C@@H](C)O)[C@@H](C)O)[C@@H](C)O)C(=O)NCC(=O)N[C@H](C(=O)NCC(=O)N[C@@H](C)C(=O)N1CCC[C@H]1C(N)=O)C(C)C` [hCT], for which the maximal effect (Emax) on hCTR G369A amounted to 148 ± 10%; on hCTR N286A, 40 ± 3%; at hCTR L368A, 115 ± 7%; at hCTR L298A it was 58 ± 6%; on hCTR E294A it was 57 ± 6%.

Regarding `CSCC[C@H](NC(=O)CNC(=O)[C@H](CO)NC(=O)[C@H](Cc1ccccc1)NC(=O)[C@H](CCCNC(=N)N)NC(=O)[C@H](Cc1c[nH]cn1)NC(=O)[C@H](Cc1ccccc1)NC(=O)[C@H](CC(N)=O)NC(=O)[C@H](CC(N)=O)NC(=O)[C@H](CC(C)C)NC(=O)[C@H](CC(N)=O)NC(=O)[C@H](CCCNC(=N)N)NC(=O)[C@H](Cc1c[nH]c2ccccc12)NC(=O)[C@H](Cc1ccc(O)cc1)NC(=O)[C@H](C)NC(=O)[C@H](CO)NC(=O)[C@H](CC(C)C)NC(=O)[C@@H](NC(=O)[C@@H]1CSSC[C@H](N)C(=O)N[C@@H](CO)C(=O)N[C@@H](CC(N)=O)C(=O)N[C@@H](CC(C)C)C(=O)N[C@@H](CO)C(=O)N[C@@H]([C@@H](C)O)C(=O)N1)C(C)C)C(=O)NCC(=O)N[C@@H](Cc1ccccc1)C(=O)NCC(=O)N1CCC[C@H]1C(=O)N[C@@H](CCC(=O)O)C(=O)N[C@H](C(=O)N1CCC[C@H]1C(N)=O)[C@@H](C)O` [pCT] (H-CSNLSTCVLSAYWRNLNNFHRFSGMGFGPETP-NH2; disulfide 1-7), the EC50 on hCTR G369A (setting [1]) is 7.59 nM; at hCTR N286A (setting [1]) it was 0.562 nM; on hCTR L368A (setting [1]) it was 10 nM; on hCTR L298A (L298A, IP1, CV1-FlpIn cells, 60 min, LiCl, mean ± S.E.M.), 4.07 nM; at hCTR E294A (setting [1]), 1.29 nM. For the same molecule, the Emax at hCTR G369A is 110 ± 6%; at hCTR N286A, 76 ± 6%; on hCTR L368A, 94 ± 9%; at hCTR L298A (L298A, IP1 maximal response, mean ± S.E.M.), 91 ± 10%; on hCTR E294A, 119 ± 8%.

As for `CC(C)C[C@H](NC(=O)[C@H](CCCCN)NC(=O)CNC(=O)[C@H](CC(C)C)NC(=O)[C@@H](NC(=O)[C@@H]1CSSC[C@H](N)C(=O)N[C@@H](CO)C(=O)N[C@@H](CC(N)=O)C(=O)N[C@@H](CC(C)C)C(=O)N[C@@H](CO)C(=O)N[C@@H]([C@@H](C)O)C(=O)N1)C(C)C)C(=O)N[C@@H](CO)C(=O)N[C@@H](CCC(N)=O)C(=O)N[C@@H](CCC(=O)O)C(=O)N[C@@H](CC(C)C)C(=O)N[C@@H](Cc1c[nH]cn1)C(=O)N[C@@H](CCCCN)C(=O)N[C@@H](CC(C)C)C(=O)N[C@@H](CCC(N)=O)C(=O)N[C@H](C(=O)N[C@@H](Cc1ccc(O)cc1)C(=O)N1CCC[C@H]1C(=O)N[C@@H](CCCNC(=N)N)C(=O)N[C@H](C(=O)N[C@@H](CC(N)=O)C(=O)N[C@H](C(=O)NCC(=O)N[C@@H](CO)C(=O)NCC(=O)N[C@H](C(=O)N1CCC[C@H]1C(N)=O)[C@@H](C)O)[C@@H](C)O)[C@@H](C)O)[C@@H](C)O` [sCT], the Emax on hCTR G369A stood at 97 ± 7%; at hCTR N286A, 59 ± 5%; on hCTR L368A, 97 ± 4%; at hCTR L298A, 66 ± 5%; at hCTR E294A it was 84 ± 5%.
